The text below walks through data of patent US11696912B2, “Charged ion channel blockers and methods for use” (Nocion Therapeutics, Inc., priority 2019, dated 2023).

Data set [1] deals with T1, NaV1.7 (Homo sapiens, UniProt Q15858).
T1 construct: expressed in transfected cells; host or cells: Tetracycline-inducible cell line kept under hygromycin and blasticidin selection
Put plainly: Nav1.7 extracellular inhibition, whole cell patch clamp (external block). The format is cell-based. The note with it: compound in external solution; for inhibition at 10 µM: read-out: Nav1.7 extracellular inhibition, extracellular inhibition, read-out: Nav1.7 Intracellular Inhibition; for inhibition at 30 µM: test concentration of 30 μM. On the procedure:
(§1) NaV1.7 was expressed upon induction with tetracycline. Cells were cultured in DMEM containing 10% dialyzed Fetal Bovine Serum (VWR, Radnor, Pa.), 1% Glutamax (VWR, Radnor, Pa.), 1% Penicillin-Streptomycin (VWR, Radnor, Pa.), 100 mg/L Hygromycin (Thermo Fisher Scientific, Waltham, Mass. and 5 mg/L Blasticidin (Alfa Aesar, Haverhill MAI Cells were grown and maintained at 37° C. in a humidified environment containing 10% CO2 in air. Cells were detached from the culture flask for passage and harvested using 0.05% Trypsin-EDTA (Thermo Fisher Scientific, Waltham, Mass.). To induce NaV1.7, cells were induced with tetracycline (0.1-1 μg/mL, IBI Scientific, Peosta, Iowa) the day before recording and plated onto 24-well plates. Cells were washed with DPBS (VWR, Radnor, Pa.), trypsinized and then triturated five times in 10 mL of growth media to break apart cell aggregates. For one 24-well plate, 2 mL of cell suspension was mixed with 23 mL of fresh growth media and 0.1-1 μg/mL tetracycline added. 1 ml of mixed media with cells was then added to each well of a 24-well plate, with a 12 mm coverslip already placed in the bottom of the well. Cells were then incubated in 37° C. and 10% CO2 overnight.
(§2) The intracellular solution contained the following (in mM) CsCl 135, NaCl 10, […], HEPES 10, MgCl2 2, adjusted to pH 7.2 with CsOH. The external solution was a normal Ringer solution containing (in mM) NaCl 155, HEPES 10, glucose 10, KCl 3.5, CaCl2 1.5, MgCl2 1 adjusted to pH 7.4 with NaOH. CsCl was from Alfa Aesar, Haverhill Mass. All other chemicals were from Sigma-Aldrich, St. Louis. Mo. In order to test the degree of internal block by test compounds the compounds were dissolved in internal solution at the indicated test concentration. […] In order to test the degree of external block by test compounds the compounds were dissolved in external solution at the indicated test concentration.
(§3) 18-24 hours after cells were induced with tetracycline, coverslips placed into a chamber filled with Normal Ringer solution at room temperature and the chamber placed on a microscope. Pipettes were pulled from borosilicate glass on a P97 puller (Sutter Instrument, Novato, Calif.) and polished with a MF-830 Microforge (Narishige International USA, Inc, Amityville, N.Y.) to have a resistance of 1.5-2.5 MΩ when filled with CsCl internal solution at room temperature. Healthy cells (those that are round and translucent with no visible blemishes) were chosen for seal formation. A seal was formed between the pipette and the cell, and a brief pulse of suction used to “break in” and establish the whole-cell configuration. The membrane potential was held at −100 mV before the voltage protocol began. Only cells with series resistance between 1.5-5 M were retained for analysis. The voltage protocol was as follows: Cells were held at −100 mV for 12 ms followed by a hyperpolarizing step to −105 mV for 12 ms to monitor the leak. Cells were then stepped back to −100 mV for 40 ms. Cells were then depolarized to −20 mV for 10 ms and returned to −100 mV for 26 ms.
Once the recording was started, the voltage protocol was run at 30 second intervals for 5 minutes to get a stable baseline. This was followed by 5 Hz stimulation of the same voltage protocol run until the end of experiment. […] The test compound was added for 5 minutes before washing out with normal Ringer's solution. Currents were recorded using PatchMaster software with Heka EPC10 (HEKA Electronics, Lambrecht, Germany). Only cells with inward current amplitudes at −20 mV between 400 pA and 4 nA were accepted. In addition, cells having leak currents greater than 10% of their current amplitudes were discarded.
The data was plotted using the Patchmaster software (HEKA Electronics, Lambrecht, Germany) and analyzed by plotting the minimum current during the voltage step to −20 mV (peak inward current) as a function of time. To determine the % block produced by test compounds applied externally the following was done. […]
For orientation: The patch-clamp technique gives a direct electrical read-out from membranes.

Data set [2] addresses T1, NaV1.7. Description: Nav1.7 intracellular inhibition, whole cell patch clamp (internal block). The format is cell-based. The note with it: compound in internal solution; for inhibition at 10 µM: test concentration of 10 μM. The procedure:
as §1, §2, §3
Once the recording was started, the voltage protocol was run at 30 second intervals for 5 minutes to get a stable baseline. This was followed by four 30-second periods of 5 Hz stimulation of the same voltage protocol separated by 1 minute of rest which was then followed by 0.33 Hz stimulation after the last train. Currents were recorded using PatchMaster software with Heka EPC10 (HEKA Electronics, Lambrecht, Germany). Only cells with inward current amplitudes at −20 mV between 400 pA and 4 nA were accepted. In addition, cells having leak currents greater than 10% of their current amplitudes were discarded.
The data was plotted using the Patchmaster software (HEKA Electronics, Lambrecht, Germany) and analyzed by plotting the minimum current during the voltage step to −20 mV (peak inward current) as a function of time. […]

Data set [3] is described as follows: PAMPA artificial lipid membrane permeability. The note with it: pH 7.4, 4 hours incubation, GIT lipid; for Papp at 4 h, 50 µM: PAMPA. The format is in vitro ADME. The procedure:
The PAMPA assay (pION, Inc., Woburn Mass.) was used to determine the ability of compounds of the invention to cross an artificial lipid membrane by passive diffusion. Test compounds were dissolved in DMSO (10 mM) and diluted 200-fold in buffer (pION Inc., pH 7.4) to provide 50 uM stock solutions. Buffer (150 μL) was added to a UV blank plate and stock solutions (150 μL) were transferred to a UV reference plate. The blank and reference spectrum were read using a spectrophotometer. Stock solutions (200 μL) were added to the donor plate of the PAMPA sandwich plate and an accept plate painted with GIT lipid (pION Inc, 5 μL) was placed on top. Buffer (200 μL) was added to the acceptor plate and the PAMPA sandwich plate was incubated for 4 hours. Aliquots (150 μL) from the acceptor plate were added to a UV plate and read as acceptor spectrum. Aliquots (150 μL) of the donor solutions were added to a UV analysis plate and read as donor spectrum. The permeability coefficient of test compounds was calculated using PAMPA Explorer™ software (version 3.5.0.4) based on the AUC of the reference plate, the donor plate, and the acceptor plate.
A general note: PAMPA measures passive passage across an artificial lipid membrane.

T1 sequence (Q15858 whole entry): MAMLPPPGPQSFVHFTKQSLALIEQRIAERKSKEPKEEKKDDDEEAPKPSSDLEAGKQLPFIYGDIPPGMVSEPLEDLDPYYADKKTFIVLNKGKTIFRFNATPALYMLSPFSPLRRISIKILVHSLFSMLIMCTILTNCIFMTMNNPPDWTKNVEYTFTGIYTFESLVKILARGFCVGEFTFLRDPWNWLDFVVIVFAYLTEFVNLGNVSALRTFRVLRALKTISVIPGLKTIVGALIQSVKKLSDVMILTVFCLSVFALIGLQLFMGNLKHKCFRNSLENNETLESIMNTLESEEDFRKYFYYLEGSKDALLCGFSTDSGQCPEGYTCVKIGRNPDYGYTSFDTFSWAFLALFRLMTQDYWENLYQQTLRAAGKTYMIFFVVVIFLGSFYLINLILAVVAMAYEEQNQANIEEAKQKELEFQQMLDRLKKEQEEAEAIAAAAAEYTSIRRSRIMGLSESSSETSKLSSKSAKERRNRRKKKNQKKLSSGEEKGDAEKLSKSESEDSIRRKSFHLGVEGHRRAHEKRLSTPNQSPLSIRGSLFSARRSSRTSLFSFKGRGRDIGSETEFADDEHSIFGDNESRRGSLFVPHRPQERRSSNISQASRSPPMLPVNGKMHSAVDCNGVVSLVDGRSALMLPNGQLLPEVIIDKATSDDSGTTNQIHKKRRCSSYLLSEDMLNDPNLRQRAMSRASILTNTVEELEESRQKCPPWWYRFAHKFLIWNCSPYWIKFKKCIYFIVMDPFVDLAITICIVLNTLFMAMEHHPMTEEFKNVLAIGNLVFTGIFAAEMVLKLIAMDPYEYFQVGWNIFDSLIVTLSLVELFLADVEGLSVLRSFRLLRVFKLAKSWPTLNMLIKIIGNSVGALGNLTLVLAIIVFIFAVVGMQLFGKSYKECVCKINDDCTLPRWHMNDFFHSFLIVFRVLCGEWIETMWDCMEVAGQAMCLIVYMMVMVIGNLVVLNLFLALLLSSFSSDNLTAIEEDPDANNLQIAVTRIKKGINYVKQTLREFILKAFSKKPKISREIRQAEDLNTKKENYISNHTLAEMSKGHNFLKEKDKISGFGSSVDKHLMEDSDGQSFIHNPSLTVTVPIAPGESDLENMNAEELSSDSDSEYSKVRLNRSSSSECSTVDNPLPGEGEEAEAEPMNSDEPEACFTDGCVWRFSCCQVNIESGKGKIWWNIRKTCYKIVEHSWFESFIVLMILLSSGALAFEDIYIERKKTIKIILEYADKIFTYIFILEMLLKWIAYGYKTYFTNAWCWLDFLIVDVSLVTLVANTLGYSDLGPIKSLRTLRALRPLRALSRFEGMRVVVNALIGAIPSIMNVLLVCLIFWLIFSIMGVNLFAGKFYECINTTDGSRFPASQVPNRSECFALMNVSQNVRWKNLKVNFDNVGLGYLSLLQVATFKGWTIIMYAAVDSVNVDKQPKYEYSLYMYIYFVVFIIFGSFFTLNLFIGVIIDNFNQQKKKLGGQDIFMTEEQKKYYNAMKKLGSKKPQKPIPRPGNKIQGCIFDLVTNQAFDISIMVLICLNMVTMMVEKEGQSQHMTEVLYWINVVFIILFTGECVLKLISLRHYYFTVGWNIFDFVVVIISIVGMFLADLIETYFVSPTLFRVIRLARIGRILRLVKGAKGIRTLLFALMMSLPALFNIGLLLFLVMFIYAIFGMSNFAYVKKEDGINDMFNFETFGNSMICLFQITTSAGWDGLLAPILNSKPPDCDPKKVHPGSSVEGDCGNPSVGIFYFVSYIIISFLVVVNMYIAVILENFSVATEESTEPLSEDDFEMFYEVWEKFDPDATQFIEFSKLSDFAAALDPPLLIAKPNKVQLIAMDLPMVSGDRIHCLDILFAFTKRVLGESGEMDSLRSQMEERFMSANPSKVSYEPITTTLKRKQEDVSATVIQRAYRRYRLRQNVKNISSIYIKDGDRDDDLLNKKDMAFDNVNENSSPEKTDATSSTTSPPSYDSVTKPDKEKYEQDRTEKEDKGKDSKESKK

For the compound `Cc1csc(C(=O)OC(C)(C)C)c1NC(=O)C[n+]1cccc(-c2ccccc2)c1.[Br-]` [A], the inhibition (as a rule, the relative decrease from the control value, in per cent) at 10 µM at NaV1.7 [1] was in the range of 40 to 70%. On NaV1.7 [2], the inhibition at 3 µM was 70 to 90%. Further, in data set [3], the “PAMPA (10^−6cm/s)” value is “+ ((<0.1 10^−6 cm/s))”.

Take `CCOC(=O)c1scc(C)c1NC(=O)C[n+]1cccn1C1CCCCC1` [C]: the inhibition at 10 µM on NaV1.7 [1] is less than 40%. Moreover, the inhibition at 3 µM against NaV1.7 [2] was 70 to 90%. Further, the “PAMPA (10^−6cm/s)” value in data set [3] is recorded as “+ ((<0.1 10^−6 cm/s))”.

With `COC(=O)c1scc(C)c1NC(=O)C[n+]1cccc(-c2ccccc2)c1` [Compound 23], on NaV1.7 [1], the inhibition at 10 µM was less than 40% and the inhibition at 30 µM was less than 30%. At NaV1.7 [2], this compound registered an inhibition at 3 µM of 40 to 70% and an inhibition at 10 µM of more than 70%. In data set [3], the Papp (usually the rate of passage across a membrane or cell layer, normalised by area and donor concentration) at 4 h, 50 µM is less than 1 ×10⁻⁶ cm/s; the “PAMPA (10^−6cm/s)” value is reported as “+ ((<0.1 10^−6 cm/s))”.

In the case of `Cc1cccc(C(=O)OC(C)(C)C)c1NC(=O)C[n+]1cccn1C1CCCCC1.[Br-]` [D], the inhibition at 10 µM on NaV1.7 [1] is less than 40%. The compound also had an inhibition at 3 µM against NaV1.7 [2] of 70 to 90%. In data set [3], the “PAMPA (10^−6cm/s)” value is recorded as “+ ((<0.1 10^−6 cm/s))”.

With `COC(=O)c1scc(C)c1NC(=O)C[n+]1cccn1C1CCCCC1` [Compound 22], on NaV1.7 [1], the inhibition at 10 µM is less than 40% and the inhibition at 30 µM was less than 30%. At NaV1.7 [2], this compound gave an inhibition at 3 µM of 40 to 70% and an inhibition at 10 µM of more than 70%. In data set [3], the Papp at 4 h, 50 µM is less than 1 ×10⁻⁶ cm/s and the “PAMPA (10^−6cm/s)” value was “+ ((<0.1 10^−6 cm/s))”.

With `CCCOC(=O)c1scc(C)c1NC(=O)C[n+]1cccn1C1CCCCC1.[Br-]` [B], at NaV1.7 [1], the inhibition at 10 µM is less than 40%. In addition, the inhibition at 3 µM against NaV1.7 [2] is more than 90%. Besides, in data set [3], the “PAMPA (10^−6cm/s)” value was “+ ((<0.1 10^−6 cm/s))”.
